# Test results as given in patent US12036271B2, “Peptides and combination of peptides as targets or active ingredients for use in immunotherapy against AML and other cancers” (Immatics Biotechnologies GmbH, priority 2016, dated 2024).
# System: CD8+ T cells
# Assay: In vitro immunogenicity: T-cell priming with aAPCs loaded with peptide/MHC complexes and anti-CD28, pMHC multimer readout
# Assay type: cell-based, human
# Settings: HLA-A*02 healthy donor CD8+ T cells, multimer staining
# Text: In order to obtain information regarding the immunogenicity of the TUMAPs of the present invention, the inventors performed investigations using an in vitro T-cell priming assay based on repeated stimulations of CD8+ T cells with artificial antigen presenting cells (aAPCs) loaded with peptide/MHC complexes and anti-CD28 antibody.
# In order to perform in vitro stimulations by artificial antigen presenting cells loaded with peptide-MHC complex (pMHC) and anti-CD28 antibody, the inventors first isolated CD8+ T cells from fresh HLA-A*02 leukapheresis products via positive selection using CD8 microbeads (Miltenyi Biotec, Bergisch-Gladbach, Germany) of healthy donors obtained from the University clinics Mannheim, Germany, after informed consent.
# PBMCs and isolated CD8+ lymphocytes were incubated in T-cell medium (TCM) until use consisting of RPMI-Glutamax (Invitrogen, Karlsruhe, Germany) supplemented with 10% heat inactivated human AB serum (PAN-Biotech, Aidenbach, Germany), 100 U/ml Penicillin/100 μg/ml Streptomycin (Cambrex, Cologne, Germany), 1 mM sodium pyruvate (CC Pro, Oberdorla, Germany), 20 μg/ml Gentamycin (Cambrex). 2.5 ng/ml IL-7 (PromoCell, Heidelberg, Germany) and 10 U/ml IL-2 (Novartis Pharma, Nürnberg, Germany) were also added to the TCM at this step.
# Generation of pMHC/anti-CD28 coated beads, T-cell stimulations and readout was performed in a highly defined in vitro system using four different pMHC molecules per stimulation condition and 8 different pMHC molecules per readout condition.
# The purified co-stimulatory mouse IgG2a anti human CD28 Ab 9.3 (Jung et al., 1987) was chemically biotinylated using Sulfo-N-hydroxysuccinimidobiotin as recommended by the manufacturer (Perbio, Bonn, Germany). Beads used were 5.6 μm diameter streptavidin coated polystyrene particles (Bangs Laboratories, Illinois, USA).
# 800.000 beads/200 μl were coated in 96-well plates in the presence of 4×12.5 ng different biotin-pMHC, washed and 600 ng biotin anti-CD28 were added subsequently in a volume of 200 μl. Stimulations were initiated in 96-well plates by co-incubating 1×10^6 CD8+ T cells with 2×10^5 washed coated beads in 200 μl TCM supplemented with 5 ng/ml IL-12 (PromoCell) for 3 days at 37° C. Half of the medium was then exchanged by fresh TCM supplemented with 80 U/ml IL-2 and incubating was continued for 4 days at 37° C. This stimulation cycle was performed for a total of three times. For the pMHC multimer readout using eight different pMHC molecules per condition, a two-dimensional combinatorial coding approach was used as previously described (Andersen et al., 2012) with minor modifications encompassing coupling to 5 different fluorochromes. Finally, multimeric analyses were performed by staining the cells with Live/dead near IR dye (Invitrogen, Karlsruhe, Germany), CD8-FITC antibody clone SK1 (BD, Heidelberg, Germany) and fluorescent pMHC multimers. For analysis, a BD LSRII SORP cytometer equipped with appropriate lasers and filters was used. Peptide specific cells were calculated as percentage of total CD8+ cells. Evaluation of multimeric analysis was done using the FlowJo software (Tree Star, Oregon, USA). In vitro priming of specific multimer+CD8+ lymphocytes was detected by comparing to negative control stimulations.
row,Substance,wells
1,191 (ALSVLRLAL; listed as Homo sapiens) [compound 191],++ (20%-49% = ++)
2,193 (FLLAEDTKV; listed as Homo sapiens) [compound 193],++ (20%-49% = ++)
3,190 (SLYKGLLSV; listed as Homo sapiens) [compound 190],++ (20%-49% = ++)
4,196 (ILVDWLVQV; listed as Homo sapiens) [compound 196],++ (20%-49% = ++)
5,195 (FLFVDPELV; listed as Homo sapiens) [compound 195],+++ (50%-69% = +++)
6,189 (RLFEEVLGV; listed as Homo sapiens) [compound 189],++ (20%-49% = ++)
7,194 (LLWGNLPEI; listed as Homo sapiens) [compound 194],++ (20%-49% = ++)
8,198 (KIQEILTQV; listed as Homo sapiens) [compound 198],++ (20%-49% = ++)
9,192 (GLAALAVHL; listed as Homo sapiens) [compound 192],++ (20%-49% = ++)
10,197 (VLLNEILEQV; listed as Homo sapiens) [compound 197],++ (20%-49% = ++)
